From ChEMBL document CHEMBL1201862, “PubChem BioAssay data set” (2004)
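Assay format: 96-well plates, 48-hour exposure. Abbreviation: GI50, concentration required for 50% inhibition of growth.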 Activity calls are given as the source filed them. Rule as the data show it: active = GI50 up to about 1.1 µM and inactive = higher.

Tests used:
Assay in all cases: growth of human tumour cells (NCI), 48 h
SNB-75 = tested on: SNB-75
NCI-H522 = tested on: NCI-H522
MDA-MB-231 = tested on: MDA-MB-231
UACC-62 = tested on: UACC-62
DU-145 = tested on: DU-145
NCI-H226 = tested on: NCI-H226
ACHN = tested on: ACHN
RXF 393 = tested on: RXF 393
IGROV-1 = tested on: IGROV-1
HT-29 = tested on: HT-29
RPMI-8226 = tested on: RPMI-8226
U-251 = tested on: U-251
A498 = tested on: A498
BT-549 = tested on: BT-549
UACC-257 = tested on: UACC-257
OVCAR-8 = tested on: OVCAR-8
KM12 = tested on: KM12
NCI/ADR-RES = tested on: NCI/ADR-RES
EKVX = tested on: EKVX
CAKI-1 = tested on: CAKI-1

| SMILES | GI50 (SNB-75) | GI50 (NCI-H522) | GI50 (MDA-MB-231) | GI50 (UACC-62) | GI50 (DU-145) | GI50 (NCI-H226) | GI50 (ACHN) | GI50 (RXF 393) | GI50 (IGROV-1) | GI50 (HT-29) | GI50 (RPMI-8226) | GI50 (U-251) | GI50 (A498) | GI50 (BT-549) | GI50 (UACC-257) | GI50 (OVCAR-8) | GI50 (KM12) | GI50 (NCI/ADR-RES) | GI50 (EKVX) | GI50 (CAKI-1) |
| --- | --- | --- | --- | --- | --- | --- | --- | --- | --- | --- | --- | --- | --- | --- | --- | --- | --- | --- | --- | --- |
| COC1=C(Br)[C@H](O)[C@@]2(C=C1Br)CC(C(=O)NCCCCCNC(=N)N)=NO2 [APLYSINAMISINE II] | 6.79 µM (inactive) | > 10 µM (inactive) | > 10 µM (inactive) | > 10 µM (inactive) | > 10 µM (inactive) | > 10 µM (inactive) | > 10 µM (inactive) | > 10 µM (inactive) | > 10 µM (inactive) | > 10 µM (inactive) | > 10 µM (inactive) | > 10 µM (inactive) | > 10 µM (inactive) | > 10 µM (inactive) | > 10 µM (inactive) | > 10 µM (inactive) | > 10 µM (inactive) | > 10 µM (inactive) | – | – |
| Oc1cc(CF)nc(S)n1 | > 100 µM (inactive) | > 100 µM (inactive) | > 100 µM (inactive) | > 100 µM (inactive) | > 100 µM (inactive) | > 100 µM (inactive) | > 100 µM (inactive) | > 100 µM (inactive) | > 100 µM (inactive) | > 100 µM (inactive) | – | > 100 µM (inactive) | > 100 µM (inactive) | > 100 µM (inactive) | > 100 µM (inactive) | > 100 µM (inactive) | > 100 µM (inactive) | > 100 µM (inactive) | > 100 µM (inactive) | > 100 µM (inactive) |
| COc1ccc(/C=C2\CCC(CNc3ccc(S(N)(=O)=O)cc3)C2=O)cc1 (configuration not stated) | 32.1 µM (inactive) | 4.52 µM (inactive) | 16.6 µM (inactive) | 24.5 µM (inactive) | > 53.8 µM (inactive) | > 69.5 µM (inactive) | 23.1 µM (inactive) | 20.4 µM (inactive) | 20 µM (inactive) | 10.2 µM (inactive) | – | 19.9 µM (inactive) | 44.4 µM (inactive) | 18.7 µM (inactive) | 20 µM (inactive) | 18 µM (inactive) | 11.3 µM (inactive) | 31.6 µM (inactive) | 27.6 µM (inactive) | 3.27 µM (inactive) |
| COc1ccc(/C=C2/C(=O)N(C(=O)c3ccccc3O)N=C2C)cc1OC | – | 1.71 µM (inactive) | > 100 µM (inactive) | 0.147 µM (active) | 0.643 µM (active) | 0.637 µM (active) | 0.162 µM (active) | 0.0214 µM (active) | 0.133 µM (active) | 16.8 µM (inactive) | 1.72 µM (inactive) | 0.202 µM (active) | 0.121 µM (active) | 0.388 µM (active) | 1.42 µM (inactive) | 0.568 µM (active) | 0.516 µM (active) | 0.614 µM (active) | 1.38 µM (inactive) | 2.46 µM (inactive) |
| CCSSCS(C)(=O)=O | 23.3 µM (inactive) | 18.9 µM (inactive) | 89.1 µM (inactive) | 60.5 µM (inactive) | 19.1 µM (inactive) | 29.8 µM (inactive) | 30.5 µM (inactive) | 22.1 µM (inactive) | – | 30.4 µM (inactive) | – | 36.4 µM (inactive) | 32.3 µM (inactive) | 32.1 µM (inactive) | 21.3 µM (inactive) | 21.6 µM (inactive) | 61.7 µM (inactive) | 31.8 µM (inactive) | 55.1 µM (inactive) | 34.8 µM (inactive) |
| CN(C)CCn1c(=O)c2ccc3c4c(nn3CCN(C)C)c3cc([N+](=O)[O-])ccc3n(c1=O)c24 | – | < 0.01 µM (active) | 0.0929 µM (active) | 0.337 µM (active) | 0.0508 µM (active) | 0.518 µM (active) | 0.0384 µM (active) | 0.12 µM (active) | 0.0708 µM (active) | < 0.0112 µM (active) | 0.0194 µM (active) | 0.0281 µM (active) | 0.317 µM (active) | 0.906 µM (active) | 0.617 µM (active) | 0.049 µM (active) | 0.0263 µM (active) | 0.0859 µM (active) | 0.115 µM (active) | 0.0481 µM (active) |
